# What was measured:
# Set-up in all cases: scale not given here
# ABUTH Velvetleaf [1] = test: Preemergence herbicidal evaluation, ABUTH; assay type: in vivo, Abutilon theophrasti, Medic.; details: preemergence
# In short: (§1)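 Seeds mixed with potting soil in cups, then sprayed preemergence with aqueous acetone test solution at about 0.013 to 0.800 kg per hectare equivalent. Cups kept under standard greenhouse care; plants rated on a visual scale four to five weeks after treatment.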
# CASOB Sicklepod [2] = test: Postemergence herbicidal evaluation, CASOB; assay type: in vivo, Cassia obtusifolia, L.; details: postemergence spray, rated about two-three weeks after treatment
# In short: (§2)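 Two-week-old seedlings sprayed postemergence with compound in 80/20 acetone/water plus 1.0% methylated seed oil, at about 0.006–0.400 kg/ha, through a nozzle at 40 psi. Plants kept under greenhouse conditions and visually rated about two–three weeks after treatment; ratings from repeat tests averaged.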
# GLXMAW Soybean, Williams [3] = test: Postemergence herbicidal evaluation, GLXMAW; assay type: in vivo, Glycine max, (L.) Merr. cv Williams; details: postemergence spray, rated about two-three weeks after treatment
# In short: as §2
# GLXMAW Soybean, Williams [4] = test: Preemergence herbicidal evaluation, GLXMAW; assay type: in vivo, Glycine max, (L.) Merr. cv Williams; details: preemergence
# In short: as §1
# SETVI Foxtail, Green [5] = test: Postemergence herbicidal evaluation, SETVI; assay type: in vivo, Setaria viridis, (L.) Beau; details: postemergence spray, rated about two-three weeks after treatment
# In short: as §2
# [6] = test system: TRZAWR Wheat, Winter, cv Riband; test: Preemergence herbicidal evaluation, TRZAWR; assay type: in vivo, Triticum aestivum; details: preemergence
# In short: as §1
# ORYSAT Rice, Tebonnet [7] = test: Preemergence herbicidal evaluation, ORYSAT; assay type: in vivo, Oryza sativa, (L.); details: preemergence
# In short: as §1
# ZEAMX Corn, Field [8] = test: Preemergence herbicidal evaluation, ZEAMX; assay type: in vivo, Zea mays, L. (Sammel-Bezeichnung); details: preemergence
# In short: as §1
# AMBEL Ragweed, Common [9] = test: Postemergence herbicidal evaluation, AMBEL; assay type: in vivo, Ambrosia artemisifolia, L.; details: postemergence spray, rated about two-three weeks after treatment
# In short: as §2
# [10] = test system: IPOHE Morningglory, Ivyleaf; test: Preemergence herbicidal evaluation, IPOHE; assay type: in vivo, Ipomoea hederacea, (L.) Jacq.; details: preemergence
# In short: as §1
# ZEAMX Corn, Field [11] = test: Postemergence herbicidal evaluation, ZEAMX; assay type: in vivo, Zea mays, L. (Sammel-Bezeichnung); details: postemergence spray, rated about two-three weeks after treatment
# In short: as §2
# [12] = test system: IPOHE Morningglory, Ivyleaf; test: Postemergence herbicidal evaluation, IPOHE; assay type: in vivo, Ipomoea hederacea, (L.) Jacq.; details: postemergence spray, rated about two-three weeks after treatment
# In short: as §2
# CASOB Sicklepod [13] = test: Preemergence herbicidal evaluation, CASOB; assay type: in vivo, Cassia obtusifolia, L.; details: preemergence
# In short: as §1
# GALAP Galium [14] = test: Postemergence herbicidal evaluation, GALAP; assay type: in vivo, Galium aparine; details: postemergence spray, rated about two-three weeks after treatment
# In short: as §2
# [15] = test system: TRZAWR Wheat, Winter, cv Riband; test: Postemergence herbicidal evaluation, TRZAWR; assay type: in vivo, Triticum aestivum; details: postemergence spray, rated about two-three weeks after treatment
# In short: as §2
# GALAP Galium [16] = test: Preemergence herbicidal evaluation, GALAP; assay type: in vivo, Galium aparine; details: preemergence
# In short: as §1
# ECHOG Barnyardgrass [17] = test: Postemergence herbicidal evaluation, ECHOG; assay type: in vivo, Echinochloa crus-galli, (L.) Beau; details: postemergence spray, rated about two-three weeks after treatment
# In short: as §2
# [18] = test system: CHEAL Lambsquarters, Common; test: Postemergence herbicidal evaluation, CHEAL; assay type: in vivo, Chenopodium album, L.; details: postemergence spray, rated about two-three weeks after treatment
# In short: as §2
# ECHOG Barnyardgrass [19] = test: Preemergence herbicidal evaluation, ECHOG; assay type: in vivo, Echinochloa crus-galli, (L.) Beau; details: preemergence
# In short: as §1
# ORYSAT Rice, Tebonnet [20] = test: Postemergence herbicidal evaluation, ORYSAT; assay type: in vivo, Oryza sativa, (L.); details: postemergence spray, rated about two-three weeks after treatment
# In short: as §2
# ABUTH Velvetleaf [21] = test: Postemergence herbicidal evaluation, ABUTH; assay type: in vivo, Abutilon theophrasti, Medic.; details: postemergence spray, rated about two-three weeks after treatment
# In short: as §2
# SETVI Foxtail, Green [22] = test: Preemergence herbicidal evaluation, SETVI; assay type: in vivo, Setaria viridis, (L.) Beau; details: preemergence
# In short: as §1
# AMBEL Ragweed, Common [23] = test: Preemergence herbicidal evaluation, AMBEL; assay type: in vivo, Ambrosia artemisifolia, L.; details: preemergence
# In short: as §1
# [24] = test system: CHEAL Lambsquarters, Common; test: Preemergence herbicidal evaluation, CHEAL; assay type: in vivo, Chenopodium album, L.; details: preemergence
# In short: as §1
smiles,measurement,setting,value
C#CCOC(=O)COc1ccc(C)cc1-n1nnc2cc(F)c(-n3c(=O)cc(C(F)(F)F)n(C)c3=O)cc21 [Example 40],ABUTH herbicidal rating,ABUTH Velvetleaf [1]; rate 0.016 kg/ha,1.0
same,ABUTH herbicidal rating,ABUTH Velvetleaf [1]; rate 0.032 kg/ha,9.0
same,ABUTH herbicidal rating,ABUTH Velvetleaf [1]; rate 0.062 kg/ha,9.0
same,ABUTH herbicidal rating,ABUTH Velvetleaf [1]; rate 0.125 kg/ha,9.0
same,Postemergence herbicidal rating CASOB,CASOB Sicklepod [2]; 0.008 kg/ha,1.0
same,Postemergence herbicidal rating CASOB,CASOB Sicklepod [2]; 0.016 kg/ha,1.0
same,Postemergence herbicidal rating CASOB,CASOB Sicklepod [2]; 0.032 kg/ha,3.0
same,Postemergence herbicidal rating CASOB,CASOB Sicklepod [2]; 0.062 kg/ha,6.0
same,Postemergence herbicidal rating GLXMAW,"GLXMAW Soybean, Williams [3]; 0.008 kg/ha",5.5
same,Postemergence herbicidal rating GLXMAW,"GLXMAW Soybean, Williams [3]; 0.016 kg/ha",6.0
same,Postemergence herbicidal rating GLXMAW,"GLXMAW Soybean, Williams [3]; 0.032 kg/ha",6.5
same,Postemergence herbicidal rating GLXMAW,"GLXMAW Soybean, Williams [3]; 0.062 kg/ha",7.0
same,GLXMAW herbicidal rating,"GLXMAW Soybean, Williams [4]; rate 0.016 kg/ha",0.0
same,GLXMAW herbicidal rating,"GLXMAW Soybean, Williams [4]; rate 0.032 kg/ha",0.0
same,GLXMAW herbicidal rating,"GLXMAW Soybean, Williams [4]; rate 0.062 kg/ha",1.0
same,GLXMAW herbicidal rating,"GLXMAW Soybean, Williams [4]; rate 0.125 kg/ha",0.0
same,Postemergence herbicidal rating SETVI,"SETVI Foxtail, Green [5]; 0.008 kg/ha",6.0
same,Postemergence herbicidal rating SETVI,"SETVI Foxtail, Green [5]; 0.016 kg/ha",9.0
same,Postemergence herbicidal rating SETVI,"SETVI Foxtail, Green [5]; 0.032 kg/ha",9.0
same,Postemergence herbicidal rating SETVI,"SETVI Foxtail, Green [5]; 0.062 kg/ha",9.0
same,TRZAWR herbicidal rating,[6]; rate 0.016 kg/ha,0.0
same,TRZAWR herbicidal rating,[6]; rate 0.032 kg/ha,0.0
same,TRZAWR herbicidal rating,[6]; rate 0.062 kg/ha,0.0
same,TRZAWR herbicidal rating,[6]; rate 0.125 kg/ha,2.0
same,ORYSAT herbicidal rating,"ORYSAT Rice, Tebonnet [7]; rate 0.016 kg/ha",0.0
same,ORYSAT herbicidal rating,"ORYSAT Rice, Tebonnet [7]; rate 0.032 kg/ha",0.0
same,ORYSAT herbicidal rating,"ORYSAT Rice, Tebonnet [7]; rate 0.062 kg/ha",0.0
same,ORYSAT herbicidal rating,"ORYSAT Rice, Tebonnet [7]; rate 0.125 kg/ha",2.0
same,ZEAMX herbicidal rating,"ZEAMX Corn, Field [8]; rate 0.016 kg/ha",0.0
same,ZEAMX herbicidal rating,"ZEAMX Corn, Field [8]; rate 0.032 kg/ha",0.0
same,ZEAMX herbicidal rating,"ZEAMX Corn, Field [8]; rate 0.062 kg/ha",1.0
same,ZEAMX herbicidal rating,"ZEAMX Corn, Field [8]; rate 0.125 kg/ha",1.0
same,Postemergence herbicidal rating AMBEL,"AMBEL Ragweed, Common [9]; 0.008 kg/ha",9.0
same,Postemergence herbicidal rating AMBEL,"AMBEL Ragweed, Common [9]; 0.016 kg/ha",7.0
same,Postemergence herbicidal rating AMBEL,"AMBEL Ragweed, Common [9]; 0.032 kg/ha",9.0
same,Postemergence herbicidal rating AMBEL,"AMBEL Ragweed, Common [9]; 0.062 kg/ha",7.0
same,IPOHE herbicidal rating,[10]; rate 0.016 kg/ha,0.0
same,IPOHE herbicidal rating,[10]; rate 0.032 kg/ha,1.0
same,IPOHE herbicidal rating,[10]; rate 0.062 kg/ha,3.0
same,IPOHE herbicidal rating,[10]; rate 0.125 kg/ha,9.0
same,Postemergence herbicidal rating ZEAMX,"ZEAMX Corn, Field [11]; 0.008 kg/ha",5.0
same,Postemergence herbicidal rating ZEAMX,"ZEAMX Corn, Field [11]; 0.016 kg/ha",7.5
same,Postemergence herbicidal rating ZEAMX,"ZEAMX Corn, Field [11]; 0.032 kg/ha",7.5
same,Postemergence herbicidal rating ZEAMX,"ZEAMX Corn, Field [11]; 0.062 kg/ha",8.5
same,Postemergence herbicidal rating IPOHE,[12]; 0.008 kg/ha,9.0
same,Postemergence herbicidal rating IPOHE,[12]; 0.016 kg/ha,9.0
same,Postemergence herbicidal rating IPOHE,[12]; 0.032 kg/ha,9.0
same,Postemergence herbicidal rating IPOHE,[12]; 0.062 kg/ha,9.0
same,CASOB herbicidal rating,CASOB Sicklepod [13]; rate 0.016 kg/ha,0.0
same,CASOB herbicidal rating,CASOB Sicklepod [13]; rate 0.032 kg/ha,4.0
same,CASOB herbicidal rating,CASOB Sicklepod [13]; rate 0.062 kg/ha,3.0
same,CASOB herbicidal rating,CASOB Sicklepod [13]; rate 0.125 kg/ha,4.0
same,Postemergence herbicidal rating GALAP,GALAP Galium [14]; 0.008 kg/ha,1.0
same,Postemergence herbicidal rating GALAP,GALAP Galium [14]; 0.016 kg/ha,2.0
same,Postemergence herbicidal rating GALAP,GALAP Galium [14]; 0.032 kg/ha,2.0
same,Postemergence herbicidal rating GALAP,GALAP Galium [14]; 0.062 kg/ha,5.0
same,Postemergence herbicidal rating TRZAWR,[15]; 0.008 kg/ha,4.0
same,Postemergence herbicidal rating TRZAWR,[15]; 0.016 kg/ha,5.0
same,Postemergence herbicidal rating TRZAWR,[15]; 0.032 kg/ha,5.5
same,Postemergence herbicidal rating TRZAWR,[15]; 0.062 kg/ha,6.5
same,GALAP herbicidal rating,GALAP Galium [16]; rate 0.032 kg/ha,0.0
same,GALAP herbicidal rating,GALAP Galium [16]; rate 0.062 kg/ha,7.0
same,GALAP herbicidal rating,GALAP Galium [16]; rate 0.125 kg/ha,9.0
same,Postemergence herbicidal rating ECHCG,ECHOG Barnyardgrass [17]; 0.008 kg/ha,4.0
same,Postemergence herbicidal rating ECHCG,ECHOG Barnyardgrass [17]; 0.016 kg/ha,9.0
same,Postemergence herbicidal rating ECHCG,ECHOG Barnyardgrass [17]; 0.032 kg/ha,9.0
same,Postemergence herbicidal rating ECHCG,ECHOG Barnyardgrass [17]; 0.062 kg/ha,9.0
same,Postemergence herbicidal rating CHEAL,[18]; 0.008 kg/ha,4.0
same,Postemergence herbicidal rating CHEAL,[18]; 0.016 kg/ha,3.0
same,Postemergence herbicidal rating CHEAL,[18]; 0.032 kg/ha,7.0
same,Postemergence herbicidal rating CHEAL,[18]; 0.062 kg/ha,9.0
same,ECHCG herbicidal rating,ECHOG Barnyardgrass [19]; rate 0.016 kg/ha,0.0
same,ECHCG herbicidal rating,ECHOG Barnyardgrass [19]; rate 0.032 kg/ha,0.0
same,ECHCG herbicidal rating,ECHOG Barnyardgrass [19]; rate 0.062 kg/ha,0.0
same,ECHCG herbicidal rating,ECHOG Barnyardgrass [19]; rate 0.125 kg/ha,4.0
same,Postemergence herbicidal rating ORYSAT,"ORYSAT Rice, Tebonnet [20]; 0.008 kg/ha",4.0
same,Postemergence herbicidal rating ORYSAT,"ORYSAT Rice, Tebonnet [20]; 0.016 kg/ha",5.0
same,Postemergence herbicidal rating ORYSAT,"ORYSAT Rice, Tebonnet [20]; 0.032 kg/ha",5.0
same,Postemergence herbicidal rating ORYSAT,"ORYSAT Rice, Tebonnet [20]; 0.062 kg/ha",6.5
same,Postemergence herbicidal rating ABUTH,ABUTH Velvetleaf [21]; 0.008 kg/ha,9.0
same,Postemergence herbicidal rating ABUTH,ABUTH Velvetleaf [21]; 0.016 kg/ha,9.0
same,Postemergence herbicidal rating ABUTH,ABUTH Velvetleaf [21]; 0.032 kg/ha,9.0
same,Postemergence herbicidal rating ABUTH,ABUTH Velvetleaf [21]; 0.062 kg/ha,9.0
same,SETVI herbicidal rating,"SETVI Foxtail, Green [22]; rate 0.016 kg/ha",0.0
same,SETVI herbicidal rating,"SETVI Foxtail, Green [22]; rate 0.032 kg/ha",4.0
same,SETVI herbicidal rating,"SETVI Foxtail, Green [22]; rate 0.062 kg/ha",5.0
same,SETVI herbicidal rating,"SETVI Foxtail, Green [22]; rate 0.125 kg/ha",6.0
same,AMBEL herbicidal rating,"AMBEL Ragweed, Common [23]; rate 0.016 kg/ha",0.0
same,AMBEL herbicidal rating,"AMBEL Ragweed, Common [23]; rate 0.032 kg/ha",4.0
same,AMBEL herbicidal rating,"AMBEL Ragweed, Common [23]; rate 0.062 kg/ha",3.0
same,AMBEL herbicidal rating,"AMBEL Ragweed, Common [23]; rate 0.125 kg/ha",4.0
same,CHEAL herbicidal rating,[24]; rate 0.016 kg/ha,9.0
same,CHEAL herbicidal rating,[24]; rate 0.032 kg/ha,9.0
same,CHEAL herbicidal rating,[24]; rate 0.062 kg/ha,9.0
same,CHEAL herbicidal rating,[24]; rate 0.125 kg/ha,9.0
